Test results reported in US11266654B2 (AI Therapeutics, Inc., priority 2014, dated 2022).

What was measured:
Normal lung fibroblasts = experiment: Cytotoxicity on normal cells; assay type: cell-based; conditions: concentrations as high as 10 micromolar
Source text: (§1) 35 cell lines were identified as sensitive to apilimod-induced cytotoxicity.

[1] = system: 122 human cancer cell lines; experiment: Cancer cell line sensitivity screen (cell viability); assay type: cell-based; conditions: non-Hodgkin's Lymphoma cell lines; sensitive if IC50 less than 500 nM
Source text: as §1
The most sensitive of those tested were non-Hodgkin's Lymphoma (NHL) cell lines. […] NHL represents a diverse group of hematopoietic malignancies that vary in severity, with subtypes ranging from slow growing to aggressive. Subtypes of NHL include diffuse large B cell lymphoma (DLBCL), Burkitt's lymphoma, mantle lymphoma, and follicular B cell lymphoma. DLBCL is divided into two subtypes, GCB and ABC, based on gene expression and cell of origin. The GCB are germinal center B cell type, arising from normal germinal center B cells, and the ABC are activated B cell type, arising from post-germinal center B cells in the process of differentiating into plasma cells.

SUDHL-4 cells = experiment: Screen of 93-drug library with and without apilimod (CellTiter-Glo 72 h); assay type: cell-based; conditions: Homo sapiens, SU-DHL-4
Source text: A manually curated library of 93 drugs including both FDA approved and unapproved drugs was used in the screen.

[2] = system: diffuse large B cell lymphoma cells; experiment: Apotox-Glo Triplex assay (viability, apoptosis, necrosis); assay type: cell-based; conditions: 48 hours
Protocol: Apoptosis was quantified and distinguished from necrosis using the Apotox-Glo Triplex assay (Promega, Inc.) according to the manufacturer's instructions. In this assay, viability, apoptosis, and necrosis are assessed simultaneously using three different markers (GF-AFC, Caspase-3/7, and bis-AAF-R110, respectively).

H4 neuroglioma cell line = experiment: Cyto-ID Autophagy detection; assay type: cell-based, Human; conditions: 72 hours of treatment
Source text: Autophagy was quantified using the Cyto-ID Autophagy detection kit (Enzo) according to manufacturer's directions.

[3] = system: representative cancer cell line; experiment: Vacuolization of live cells; assay type: cell-based; conditions: 500 nM, 24 h
[4] = system: peripheral blood mononuclear cells; conditions: peripheral blood mononuclear cells (Wada et al. 2007); cited from earlier work
U937 = U937 (WO 2006/128129); cited from earlier work
HELA = HELA (WO 2006/128129); cited from earlier work
Jurkat = Jurkat (WO 2006/128129); cited from earlier work
THP-1 = THP-1 (WO 2006/128129); cited from earlier work
IL-12/IL-23 synthesis = conditions: psoriasis, oral administration, open label (Wada et al. 2012); cited from earlier work
[5] = active Crohn's disease, placebo-controlled (Sands et al. 2010); cited from earlier work

Cc1cccc(/C=N/Nc2cc(N3CCOCC3)nc(OCCc3ccccn3)n2)c1 [apilimod]
apilimod-induced cytotoxicity (Normal lung fibroblasts): insensitive
percentage of NHL cell lines tested that were sensitive [1]: over 50%
IC20 (SUDHL-4 cells): 10 nM
apoptosis (Caspase-3/7 marker) [2]: increased apoptosis
autophagy (autophagic vacuoles) (H4 neuroglioma cell line): induced autophagy in a dose-dependent manner
vacuolization [3]: induces vacuolization
cytotoxicity [4]: not cytotoxic
cytotoxicity (U937): not cytotoxic
cytotoxicity (HELA): not cytotoxic
cytotoxicity (Jurkat): not cytotoxic
cytotoxicity (THP-1): not cytotoxic
immunomodulatory activity in patients (IL-12/IL-23 synthesis): showed immunomodulatory activity
clinical efficacy [5]: did not demonstrate efficacy over placebo
